Patent US20190160035A1, “METHOD OF TREATMENT” (QBIOTICS LIMITED, priority 2016, published 2019)
Entries after “also recorded” stand apart in the source; their conditions may differ.

Experiments:
[1] = Example 2: serum biochemistry and haematology; assay type: in vivo, dogs
Source text: Individual blood samples were collected from the dogs into gel separated plain vacuettes at intervals outlined in Table 12. Plain blood samples were submitted on ice bricks by express courier to the local IDEXX laboratory which performed detailed biochemical analysis. Analysis included creatinine, protein, albumin, globulin, alkaline phosphatase, AST, gamma GT, creatine kinase, cholesterol, magnesium, calcium, phosphate, sodium, potassium, chloride, ALT, glucose, urea, amylase, bilirubin and triglycerides.
Individual blood samples were collected from the dogs into anti-coagulated (EDTA and sodium citrate) vacutainers at intervals outlined in Table 12. Blood samples were then be submitted on ice bricks by express courier to the local IDEXX laboratory, which performed detailed haematological analysis. Analysis included red blood cell count, white cell count, packed cell volume, mean corpuscular volume, mean corpuscular haemoglobin, mean corpuscular haemoglobin concentration, white cell differential count, platelets, haemoglobin, reticulocytes, PT and APTT.

[2] = Example 7: injection site abnormalities after IVP dosing (VCOG CTCAE); assay type: in vivo, dogs; parameters: key to VCOG CTCAE Magnitude of injection site abnormality: Grade 1: Mild; asymptomatic or mild symptoms; clinical signs or diagnostic observations only; intervention not indicated; key to VCOG CTCAE Relationship to IVP of injection site abnormality: Unrelated: Clearly not related to IVP; Unlikely: Doubtfully related to IVP; Possible: May be related to IVP; Probably: Likely related to IVP; Definite: Clearly related to IVP
Source text: Injection site abnormalities were reported within the immediate post-injection period for six cases. […] An analgesic was prescribed to start on day 0 for one of the six cases (SI-11). […] The VCOG CTCAE classifications of these injection site abnormalities for magnitude and relationship to IVP as determined by the investigator are listed in Table 35.

[3] = system: cutaneous MCT or subcutaneous MCT; assay: Example 1: RECIST v.1.1 tumor response after a single intratumoral Compound 1 injection (0.4 mL/cm^3 of tumor) with prophylactic and supportive medications; assay type: in vivo, Canis lupus familiaris (dog)
Source text: Study dogs were managed similarly and with due regard for their welfare. Animals were enrolled in the study in accordance with instructions provided in Australian Pesticides and Veterinary Medicines Authority (APVMA) small-scale trials permit PER7250 (unregistered drug use). All animals were client-owned, treated by Australian registered veterinarians, and cases managed under their direct supervision. An enrolled dog could be removed from the study prior to study completion under the following circumstances: • 1. If at any time during the study, in the opinion of the attending veterinarian, the dog's welfare is at risk due to non-response of the tumor to Compound 1 treatment or due to a serious adverse event, the veterinarian could elect to withdraw the dog from the study. Following withdrawal, the dog's attending veterinarian could then administer supportive treatment and veterinary care that they deem is appropriate and in the best interest of the animal. • 2. The owner elected to voluntarily withdraw the dog from the study.
Dogs were selected for the study if they met the criteria in Table 1 below.
Compound 1 was prepared for intratumoral injection by preparation of a composition comprising 1 mg/mL Compound 1 in a 40% propylene glycol solution with 30 mM acetate buffer, pH 4.2. The dosage level was 0.4 mL/cm^3 of tumor.
The drug was administered to each dog as 0.4 mL per cm^3 of tumor volume (40% v/v tumor) as determined on the day of dosing (Day 0). Tumor volume was determined using the modified ellipsoidal calculation=½×length×width×depth (cm) (Monga et al, 2000; Celikoglu et al, 2008).
Wherever possible, the tumor and a 2 cm border surrounding the tumor was shaved prior to treatment. To deliver the drug, the needle of the dosing syringe was inserted into the tumor at the injection point and moved in a radial manner in 2- and 3-dimensions. Treatment administration was recorded on the individual “Case Report Form”. Study dogs were clinically examined at 2-4 and 24 hours, and 7 (±2), 14 (±2) and 28 (±2) days post-treatment (and unscheduled visits at attending veterinarian discretion).
Each supervising veterinarian was given latitude to provide and record prophylactic and supportive medications as deemed appropriate for managing potential paraneoplastic events and tumor site necrosis following treatment with Compound 1. […]
Determination of efficacy was based on objective tumor measurements made according to the Response Evaluation Criteria in Solid Tumors (RECIST) v.1.1 guideline (Eisenhauer et al, 2009) using the longest unidirectional tumor measurement (diameter). […] Measurements were recorded using digital calipers at pre-treatment and at 7(±2), 14(±2) and 28(±2) days post treatment. […]

[4] = immediate post-injection period

C/C=C(\C)C(=O)O[C@@H]1[C@@H](C)[C@@]2(O)[C@H]([C@@H]3C(C)(C)[C@]13OC(=O)[C@@H](C)CC)[C@@H]1O[C@]1(CO)[C@@H](O)[C@]1(O)C(=O)C(C)=C[C@H]12 [Compound 1, 12-tigloyl-13-(2-methylbutanoyl)-6,7-epoxy-4,5,9,12,13,20-hexahydroxy-1-tigliaen-3-one]
Anaemia during the course of the study ([1]; all cohorts): No dog exhibited anaemia
Bleeding disorder during the course of the study ([1]; all cohorts): No dog exhibited a bleeding disorder
Haematology observations ([1]; all cohorts): fairly unremarkable
Number of dogs with slightly elevated reticulocyte counts post treatment ([1]; all cohorts (27 dogs)): 7
Serum biochemistry observations ([1]; all cohorts, exceptions dogs GCV-204 (AST, CK) and NVC-307 (transient AST, ALT)): fairly unremarkable
Number of dogs with slightly lower platelet counts post treatment ([1]; platelets described as ‘clumping’): 5
Number of cases with injection site abnormalities in the immediate post-injection period ([2]; 11 cases): six
Number of cases that exhibited restlessness [2, 4]: three
Number of cases that experienced pain [2, 4]: Three
Day by which injection site abnormalities resolved ([2]; pain and restlessness): ≤ 1 days
VCOG CTCAE Relationship to IVP of injection site abnormality ([2]; per case, as determined by the investigator): Definite; also recorded: Possible; also recorded: Probable
VCOG CTCAE Magnitude of injection site abnormality ([2]; per case, immediate post-injection period): Grade 1^f
Number of dogs with partial response (PR) ([3]; Day 28, 11 dogs available of 12 treated): 3
Number of dogs with complete response (CR) ([3]; Day 28, 11 dogs available of 12 treated, 1.0 mg/mL, 0.4 mL/cm^3): 6
Tumor cytology in the autopsied injection site ([3]; dog C03-T-07, Day 4, personal correspondence with attending veterinarian): no tumor cytology was identified
RECIST classification ([3]; one value per dog, Day 28, single intratumoral dose, 1.0 mg/mL, 0.4 mL/cm^3 tumor): PR (partial response (PR, at least 30% decrease in the longest diameter of target lesion))
